Results on 1 molecule are retold here after patent US20090202987A1, “Canis sphingosine 1-phosphate receptor isoform 2” (priority 2004, published 2009).

The target in assay [1] is T1, cS1P2 receptor (Canis lupus familiaris, UniProt A0A8I3P3I1). Put plainly: 35S-GTPγS binding assay with membranes from transfected CHO cells. It counts as biochemical, Canis (dog). The conditions noted are these: membranes of cS1P2-transfected CHO cells, 5 μM GDP, 100 pM 35S-GTPγS, one hour at room temperature; read-out: EC50 (35S-GTPγS binding, FIG. 4). How it is done:
Functional coupling of the cS1P2 receptor to G proteins was measured in a ^35S-GTPγS binding assay. Membranes were prepared from transfected cells by homogenization in ice cold 20 mM HEPES pH 7.4, 10 mM EDTA using a Kinematica polytron (setting 5, for 10 seconds). Homogenates were centrifuged at 48,000×g for 15 minutes at 4° C. and the pellet suspended in 20 mM HEPES pH 7.4, 0.11 mM EDTA. Following a second centrifugation, the final pellet was suspended in 20 mM HEPES pH 7.4, 100 mM NaCl, 10 mM MgCl2. Membranes were incubated in 200 μL with 5 μM GDP, various concentrations of SIP (sonicated in 1% BSA), and 100 pM ^35S-GTPγS (NEN; specific activity 1250 Ci/mmol) in 96 well microtiter dishes. Binding was performed for one hour at room temperature, and terminated by harvesting the membranes onto GF/B filter plates with a Packard Filtermate Universal Harvester. After drying the filter plates for 30 min, 40 μL of MICROSCINT 20 was added to each well and binding was measured on a Packard Top Count scintillation counter.
Background: GTPγS resists hydrolysis and so accumulates on activated G proteins.

The target of assay [2] is T1, cS1P2 receptor. Put plainly: S1P ligand binding assay with transfected CHO cells expressing the cS1P2 receptor. Also noted: species or system Canis (dog). The settings on record: 33P-S1P binding to CHO cells expressing cS1P2, 60 minutes at room temperature; read-out: EC50 (S1P ligand binding, FIG. 3). The procedure:
The transfected CHO cells from Example 2 expressing the cS1P2 receptor were evaluated for the ability of the cS1P2 receptor expressed in the cells to properly integrate into the cell membrane and bind SIP.
Transfected CHO cells from Example 2 were harvested with enzyme-free dissociation solution (Specialty Media, Lavallette, N.J.). The cells were washed once in cold PBS and suspended in SIP binding buffer (50 mM HEPES-Na, pH 7.5, 5 mM MgCl2, 1 mM CaCl2, 0.5% FAF-BSA). ^33P-S1P was synthesized enzymatically from γ^33P-ATP and sphingosine using a crude extract with sphingosine kinase activity in a reaction mix containing 50 mM KH2PO4, 1 mM mercaptoethanol, 1 mM Na3VO4, 25 mM KF, 2 mM semicarbazide, 1 mM Na2EDTA, 5 mM MgCl2, […], 0.1% TritonX-114, and 1 mCi γ^33P-ATP (NEN; specific activity 2000 Ci/mnol). Reaction products were extracted with butanol and ^33P-S1p was purified by HPLC.
^33P-S1P (0.1 uCi/ml) was sonicated with 0.2 nM S1P dissolved in binding buffer; 100 μL of the mixture was added to 100 μL cells (1×10^5). Binding was performed for 60 minutes at room temperature. […] After drying the filter plates for 30 minutes, 50 μL of MICROSCINT 20 was added to each well and binding was measured with a Packard Top Count. Non-specific binding was defined as the amount of radioactivity remaining in the presence of 200 nM cold S1P.

SMILES strings stand for the structures.

By EC50 is commonly meant the concentration at which the effect is half-maximal. Consider `CCCCCCCCCCCCC/C=C/[C@@H](O)[C@@H](N)COP(=O)(O)O` [S1P, sphingosine-1-phosphate], for which the EC50 in assay [1] was about 0.8 nM; in assay [2] it was about 5.7 nM.
